We go through eight compounds from patent US5364876A, “Omega-[2-(alkyl)phenyl]-2-aminoalkanoic acids as antagonists of excitatory amino acid receptors” (Guilford Pharmaceuticals Inc., priority 1992, dated 1994).

As usually defined, the Ki is the dissociation constant of the complex between target and ligand, obtained from inhibition or displacement.

Where “and” joins values, the source holds several entries; their conditions need not be identical. Equal entries are not always repeated.

The subject of one experiment is NMDA receptors. Conditions: U.S. Pat. No. 4,657,899; cited from earlier work.
Another experiment relates to kainate receptors. Conditions: U.S. Pat. No. 4,657,899, Table I; cited from earlier work.
The target in another experiment is GLU (NMDA receptors). As to the kind of experiment: GLU receptor ligand binding (NMDA receptors). Conditions: read-out: Receptor Potency (Ki), GLU.
Experiment [1] addresses T1, strychnine insensitive glycine site (Rattus norvegicus, UniProt P35439).
T1 construct: from tissue
As to the kind of experiment: Strychnine insensitive glycine binding. The conditions noted are these: read-out: Receptor Potency (Ki), Glycine.

For experiment [2], the target named is KA receptors (kainic acid-induced currents). As to the kind of experiment: Inhibition of KA-induced currents in rat brain mRNA-injected Xenopus oocytes. Type of experiment: cell-based. The conditions noted are these: Xenopus oocytes injected with rat brain mRNA; IC50 converted to Ki by Cheng-Prusoff equation. The procedure: (§1) Defolliculated oocytes obtained from Xenopus laevis females were injected with 30-75 ng of poly (A+) mRNA obtained from 21-day old male Sprague-Dawley rats. Oocytes were placed individually in […] of antibiotic-supplemented modified Barthes solution (MBS, containing in mM: NaCl, 88; KCl, 1.0; NaHCO3, 2.4; HEPES, 10;MgSO4, 0.82; Ca(NO3)2, 0.33) in 96-well sterile plates and cultured for 48-120 hours prior to experimentation. Oocytes were inspected every 24 hours at which time the bathing solution is replaced with fresh MBS.
(§2) For electrophysiological studies, oocytes were positioned in a small recording chamber ([…]) and superfused with antibiotic free MBS supplemented with CaCl2 (final concentration=1.4 mM). Oocytes are impaled with a single glass microelectrode, voltage clamped at -60 to -70 mV, and perfused by gravity feed at a rate of […] at room temperature. […] Antagonists are coperfused with agonists. MBS used in NMDA assays were prepared from "glycine-free", deionized water
(§3) Potencies to inhibit kainic acid-, AMPA- and […] currents are determined from concentration-response curves. IC50 values are converted to Ki values for comparison purposes using the Cheng-Prusoff equation.

In experiment [3] the target is CNQX labeled non-NMDA receptors. As to the kind of experiment: CNQX-labeled non-NMDA receptor binding. Conditions: read-out: Receptor Potency (Ki), CNQX.
The target in the next experiment is AMPA receptors. As to the kind of experiment: [3H]AMPA displacement binding. Conditions: for Ki: [3H]AMPA displacement, read-out: Receptor Potency (Ki), AMPA.
The next experiment deals with KA receptor. As to the kind of experiment: KA receptor ligand binding. The arrangement: species or system rat.
Experiment [4] addresses AMPA receptors (AMPA-induced currents). As to the kind of experiment: Inhibition of AMPA-induced currents in rat brain mRNA-injected Xenopus oocytes. The class given is cell-based. The conditions noted are these: Xenopus oocytes injected with rat brain mRNA; IC50 converted to Ki by Cheng-Prusoff equation. The procedure: as §1, §2, §3

For the compound `NC(Cc1ccccc1CCP(=O)(O)O)C(=O)O` (stereo not drawn) [2-amino-3-[2-(2-phosphonoethyl)phenyl]propanoic acid], the NMDA antagonist activity entry in the experiment with NMDA receptors is recorded as “antagonists of NMDA”. Besides, the “binding affinity for kainate receptors” value in the experiment on kainate receptors is recorded as “very low binding affinity”.
In the case of `Cc1cc(C)c(CCC(=O)O)c(C[C@H](N)C(=O)O)c1` [Example 5c, 3,5-Dimethyl-2-(2'-carboxyethyl)phenylalanine], the Ki on GLU (NMDA receptors) was more than 1000 µM; in experiment [1], 211 µM. For the same compound, in experiment [2], the “Ki, inhibition of KA-induced currents” value was 84 µM.
Regarding `Cc1ccc(CCCC(=O)O)c(C[C@H](N)C(=O)O)c1` [Example 26, 5-Methyl-2-(3'-carboxypropyl) phenylalanine], the values for the Ki (on GLU (NMDA receptors); in experiment [1]; in experiment [3]) were more than 1000 µM, 2400 µM and 8.4 µM, respectively. Moreover, the “Ki, inhibition of KA-induced currents” value in experiment [2] was 13 µM and 13.3 µM.
With `NC(Cc1ccccc1CP(=O)(O)O)C(=O)O` (stereo not drawn) [2-amino-3-[2-phosphonomethylphenyl]propanoic acid], in the experiment on NMDA receptors, the NMDA antagonist activity entry is on record as “antagonists of NMDA”. Besides, the “binding affinity for kainate receptors” value with kainate receptors was “very low binding affinity”.
Turning to `NC(Cc1ccccc1CCCP(=O)(O)O)C(=O)O` (stereo not drawn) [2-amino-3-[2-(3-phosphonopropyl)phenyl]propanoic acid], in the experiment with NMDA receptors, the NMDA antagonist activity result is given as “antagonists of NMDA”. Besides, the “binding affinity for kainate receptors” value in the experiment on kainate receptors is listed as “very low binding affinity”.
For `NC(Cc1cc(F)ccc1CCC(=O)O)C(=O)O` (stereo not drawn) [Example 5a], the inhibition constant (Ki) on GLU (NMDA receptors) was more than 300 µM; at AMPA receptors, 168 µM; in experiment [1] it was 41 µM. Further, the “Ki, inhibition of KA-induced currents” value in experiment [2] was more than 50 µM. The “Receptor Potency (Ki), KA” value at KA receptor amounted to 475 µM.
In the case of `NC(Cc1cc(Cl)ccc1CCC(=O)O)C(=O)O` (stereo not drawn) [Example 5b], the Ki was 96 µM in experiment [4], more than 300 µM on GLU (NMDA receptors), 51 µM on AMPA receptors and 9 µM in experiment [1]. In the experiment with AMPA receptors (Ki GLU >300 μM versus Ki AMPA 51 μM), the “selectivity for AMPA versus NMDA receptors” value was “at least six-fold selective”. The “Ki, inhibition of KA-induced currents” value in experiment [2] is 32 µM. The “Receptor Potency (Ki), KA” value at KA receptor amounted to 506 µM.
In the case of `NC(CCCc1ccccc1CP(=O)(O)O)C(=O)O` (stereo not drawn) [2-amino-5-[2-phosphonomethylphenyl]pentanoic acid], in the experiment with NMDA receptors, the NMDA antagonist activity result is “antagonists of NMDA”. Further, the “binding affinity for kainate receptors” value with kainate receptors was “very low binding affinity”.
